{"source": "patent US20200061150A1", "about": "“METHOD OF INDUCING SELECTIVE PROSTATE GLANDULAR PHARMACO-ABLATION WITH SPARING OF NERVES AND PRESERVATION OF SEXUAL FUNCTION” (Nymox Corporation, priority 2018, published 2020)", "key": {"[1]": {"conditions": "in vivo", "excerpt": "(§1) Sub-groups of rats received repeated injections (2×-8×, on a once weekly basis) (Table 1)."}, "[2]": {"test_system": "rat prostate glandular epithelium, nerves, stroma, vessels", "test": "Prostate histology (H&E, Bielschowsky silver, TUNEL) in treated rats", "format": "in vivo, Sprague-Dawley rats", "experimental": "(§2) Two month old Sprague-Dawley rats (n=268) weighing 200 to 300 g, housed in groups of 2-5 per cage at room temperature (24-26° C.), with standard unrestricted diet and water, were anesthetized with ether and underwent open laparoscopic injections, using sterile precautions and sterile techniques, without antibiotics, of 0.3 mL of FT 0.1-2.0 mg/mL in phosphate buffered saline (PBS) pH 7.4, administered by #26 gauge sterile needles attached to sterile syringes. The animals received a “whole gland” injection in an amount roughly 20 times the amount previously administered to humans. […] The rats were daily observed and painlessly sacrificed after post-treatment intervals of 24 hours to 12 months under either anesthesia.\nProstate glands were removed, bisected, and immersed in 10% formalin solution, and subsequently embedded in paraffin, sectioned, and stained with (1) hematoxylin-eosin (H&E); (2) Bielschowsky silver method for nerve fibers; and (3) immunohistochemical TUNEL staining. TUNEL (Terminal deoxynucleotidyl transferase (dUTP) nick end labeling) detects DNA fragmentation by labeling the 3′-hydroxyl termini in the double-stand DNA breaks generated during apoptosis. Prostate cell lines (PC3 and LNCAP) were treated with FT 0.001 or 0.25 mg/mL in 6, 24, and 48 well plates and harvested and pelleted at 0, 12, 24, and 48 hours. […] The same treated cell lines under the same conditions were also stained in vitro after treatment using Annexin V immunofluorescence methods and viewed under ultraviolet light, and cell loss in vitro was assessed quantitatively (Multitox-Fluor, Promega). […]\n(§3) Apoptosis was evaluated microscopically in H&E stained sections, including rats sacrificed after 24, 48, and 72 hours, 4-8 days, and 1, 3, 6, and 12 months. […] TUNEL staining was assessed in 21 animals (72 hours; 7 days, post-treatment). Prostate volume (calculated by approximation to a sphere using the mean of 8 perpendicular diameters (2 per section at 90 degrees; on four sections) and calculations of 4/3 π(D/2)^3) were assessed in all animals and all controls. […]"}, "rat prostate": {"test_system": "rat prostate", "test": "Prostate volume in rats after intraprostatic (whole gland) injection", "format": "in vivo, Sprague-Dawley rats", "conditions": "control injection 0.5 mL HCl in water pH 3.0-5.0, 24 hr-10 days", "experimental": "as §2, §1, §3"}}, "note": "Structures can show the parent of a compound that is named as a salt. Where two headings read alike, the source gives them in different places. No end group written: not given here."}
{"molecule": "IDQQVLSRIKLEIKRCL [FT, Ile-Asp-Gln-Gln-Val-Leu-Ser-Arg-Ile-Lys-Leu-Glu-Ile-Lys-Arg-Cys-Leu]", "values": [{"measurement": "toxic effects", "setting": "[1]; dog", "value": "no toxic effects"}, {"measurement": "toxic effects", "setting": "[1]; rabbit", "value": "no toxic effects"}, {"measurement": "toxic effects", "setting": "[1]; rat", "value": "no toxic effects"}, {"measurement": "nerves and blood vessels", "setting": "[2]; all time intervals", "value": "intact"}, {"measurement": "nerve histology", "setting": "[2]; all time points including 6 months and 1 year", "value": "normal appearing nerves"}]}
{"molecule": "Cl", "note": "[HCl, reference compound]", "values": [{"measurement": "rats with focal ischemic or hemorrhagic infarctions and necrosis", "setting": "[2]; HCl pH 3.0-5.0 injected, involving <5% of the cross-sectional area", "value": "2/12"}, {"measurement": "Prostate Volume mm^3-Mean (SD)", "setting": "rat prostate", "value": "859.7 (278.1) mm^3"}]}
